“Also recorded” adds a separate entry of the source.
Legend:
[1] = Free radical scavenging assay (DPPH)
Experimental: The test samples were prepared in 50% DMSO at 500 µM. Seventy microliters of DPPH solution (500 µM in methanol) was added to 96 well plate. The assay mixture was adjusted to 80 µL volume by methanol. After adjusting the volume, 20 µL of test compounds was added to each well. The reaction plate was incubated at room temperature in dark for 30 min. The absorbance was measured at 517 nm by using infinite 200 pro^TM, Tecan. Ascorbic acid was used as a positive control. Percent inhibition was calculated and compounds showing activity were evaluated for the IC50 values.

[2] = Fe (II) chelation capacity assay (ferrozine)
Experimental: An aqueous solution of 0.2 mM ferrous sulphate was prepared. Fifty microliters of this solution was added to 96 well plate, then 40 µL of 500 µM of test compounds in 50% DMSO were added to each well followed by DI water to adjust the volume to 150 µL. The mixtures were incubated at room temperature for 10 min. After incubation, 50 µL of 1 mM ferrozine (Sigma) was added to the reaction mixture. The absorbance was measured at 562 nm by using infinite 200 pro^TM, Tecan. EDTA was used as a positive control. Chelation capacity of each compounds were calculated. Compounds having chelating capacity over than 50% were evaluated for stoichiometric ratio of compound: metal.

[3] = biological target: T1, β-Secretase (BACE1) (Homo sapiens, UniProt P56817); assay: β-Secretase inhibition assay (fluorogenic substrate IV); assay type: biochemical; settings: for inhibition at 25 µM: read-out: BACE1 % Inhibition (at 25 µM) (±SEM)
T1 construct: purchased Sino Biological
T1 sequence (P56817 46-501): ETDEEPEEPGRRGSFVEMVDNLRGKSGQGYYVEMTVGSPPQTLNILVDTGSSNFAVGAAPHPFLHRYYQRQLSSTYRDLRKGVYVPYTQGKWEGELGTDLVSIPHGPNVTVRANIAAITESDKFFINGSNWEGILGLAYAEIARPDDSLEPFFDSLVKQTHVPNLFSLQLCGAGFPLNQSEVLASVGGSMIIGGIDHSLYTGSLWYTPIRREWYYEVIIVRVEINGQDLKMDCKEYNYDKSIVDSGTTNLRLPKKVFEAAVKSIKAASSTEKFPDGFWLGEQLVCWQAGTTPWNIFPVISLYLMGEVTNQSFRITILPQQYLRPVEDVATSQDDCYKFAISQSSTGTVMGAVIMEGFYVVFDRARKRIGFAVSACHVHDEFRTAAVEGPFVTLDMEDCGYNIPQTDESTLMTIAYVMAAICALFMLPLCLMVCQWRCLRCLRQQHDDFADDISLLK
Experimental: β-Secretase enzyme was reconstituted with 50 mM Tris (pH 7.5), 10% glycerol to yield concentration of 0.5 unit/µL. The enzyme stock solution was diluted with 100 mM sodium acetate buffer (pH 4.5) to 0.01 unit/µL. Thirty microliters of enzyme solution were added to each well that contained 20 µL of 5% DMSO of test compound. Then, fifty microliters of 50 µM β-secretase substrate IV from Calbiochem were added to the reaction plate. […] The assays were run in triplicate.

[4] = biological target: T2, amyloid-β (1-42) peptide (Homo sapiens, UniProt P05067); assay: Amyloid β aggregation assay (ThT fluorescence); assay type: biochemical; settings: Aβ(1-42), 48 h; for inhibition at 100 µM: read-out: Anti-Aβ aggregation % Inhibition (at 100 µM) (±SEM)
T2 construct: Stock solution of amyloid-β (1-42) peptide (Anaspec; 1384 µM in 1% NH4OH); purchased Anaspec
T2 sequence (P05067 672-713 limits assumed): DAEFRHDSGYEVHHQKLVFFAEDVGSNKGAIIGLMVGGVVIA
Experimental: Nine microliters amyloid-β solution was added to a greiner transparent 96 well plate. One microliter of each test compounds (1,000 µM in DMSO) were added to each well and mixed gently by tapping. The final concentrations of each compound were 100 µM in 10% DMSO. The reaction plate was incubated in dark at 37 °C for 48 h. After incubation, 200 µL of 5 µM ThT (Sigma) in 50 mM Tris buffer (pH 7.4) was added to each well. The fluorescence was measured at Ex = 446 nm and Em = 490 nm by using SpectraMax Gemini EM^TM [30]. The assays were run in triplicate.

[5] = biological target: T2, amyloid-β (1-42) peptide; assay: Amyloid β aggregation assay (ThT fluorescence); assay type: biochemical; settings: Aβ(1-42), read-out: Anti-Aβ aggregation IC50
[6] = tested on: SH-SY5Y cells; assay: Protection against Aβ1-42 induced neuronal cell death, MTT viability assay; assay type: cell-based; settings: compound 1 μM
Experimental: The SH-SY5Y cells were cultured in a medium containing minimum essential medium (MEM): F-12 (1:1), 10% fetal bovine serum, MEM non-essential amino acids (0.5×), 0.5 mM sodium pyruvate and 100 units/ml of penicillin and 100 μg/mL of streptomycin. The cells were maintained under a humidified incubator with 5% CO2 in air at 37 °C.
SH-SY5Y cells were seeded in 96-well plates (2 × 10^4 cells per well) for 24 h. […] The aggregated β-amyloid was prepared by incubating in a medium without serum, penicillin and streptomycin at 37 °C for 72 h. The cells treated with aggregated β-amyloid were incubated for 24 h, 15 µL of MTT reagent (5 mg/mL MTT in serum free medium containing […]) was added to each well and incubated at 37 °C for 3 h. The medium was removed from each well. One hundred microlitres of 0.04 N HCl in isopropanol was added to each well to dissolve blue formazan crystals, which is the product of MTT catalyzed by mitochondrial dehydrogenase. The absorbance was measured at 570/630 nm using a Synergy^TM HT multi-detection microplate reader (Bio-Tek Instruments, Winooski, VT, USA).

Molecule	DPPH % Inhibition (at 100 µM) (±SEM) [1]	Fe chelation % Capacity (at 100 µM) (±SEM) [2]	inhibition at 25 µM [3] [%]	inhibition at 100 µM [4] [%]	further results
O=C1O[C@H]([C@@H](O)CO)C(O)=C1O [Ascorbic acid, reference compound]	53.64 (±0.11) %				IC50 [1]: 94.9 µM
CC(C)(C)c1ccc(-c2cn(C[C@@H]3Cc4c([nH]c5ccccc45)CN3)nn2)cc1 [Compound 6a, (S)-3-((4-(4-tert-Butylphenyl)-1H-1,2,3-triazol-1-yl)methyl)-2,3,4,9-tetrahydro-1H-pyrido[3,4-b] indole]		9.67 (±0.32) %	68		IC50 [3]: 19.8 µM
COc1ccc2cc(-c3cn(C[C@@H]4Cc5c([nH]c6ccccc56)CN4)nn3)ccc2c1 [Compound 6b, (S)-3-((4-(6-Methoxynaphthalen-2-yl)-1H-1,2,3-triazol-1-yl)me-thyl)-2,3,4,9-tetrahydro-1H-pyrido-[3,4-b]indole]		12.35 (±0.68) %	73.6	7.19	IC50 [3]: 18.9 µM
Clc1ccc(-c2cn(C[C@@H]3Cc4c([nH]c5ccccc45)CN3)nn2)cc1Cl [Compound 6c, (S)-3-((4-(3,4-Dichlorophenyl)-1H-1,2,3-triazol-1-yl)methyl)-2,3,4,9-tetrahydro-1H-pyrido[3,4-b]-indole]		15.88 (±0.21) %	78.9	10.1	IC50 [3]: 18 µM
O=C(NCc1cn(C[C@@H]2Cc3c([nH]c4ccccc34)CN2)nn1)c1ccccc1C(=O)c1ccc(O)cc1 [Compound 6d]	2.81 (±0.37) %	32.86 (±0.19) %	14.1		
O=C(CCc1ccc(O)cc1)NCc1cn(C[C@@H]2Cc3c([nH]c4ccccc34)CN2)nn1 [Compound 6e, (S)-3-((4-(N-(((4-Hydroxyphenyl)propanoyl)azyl)methyl)-1H-1,2,3-triazol-1-yl)methyl)-2,3,4,9-tetra-hydro-1H-pyrido[3,4-b]ind ole]	5.45 (±0.33) %	20.63 (±0.35) %	12.6		
O=C(NCc1cn(C[C@@H]2Cc3c([nH]c4ccccc34)CN2)nn1)c1cc(O)cc(O)c1 [Compound 6f, (S)-3-((4-(((N-(3,5-Dihydroxy)benzoyl)azyl)methyl)-1H-1,2,3-triazol-1-yl)methyl)-2,3,4,9-tetrahydro-1H-pyrido[3,4-b]indole]		5.80 (±0.04) %	21.3		melting point: 180 to 182 °C
COc1cc(/C=C/C(=O)NCc2cn(C[C@@H]3Cc4c([nH]c5ccccc45)CN3)nn2)ccc1O [Compound 6g, (S)-3-((4-(N-(((E)-(3-Methoxy-4-hydroxyphenyl)propenoyl)azyl)methyl)-1H-1,2,3-triazol-1-yl)-methyl)-2,3,4,9-tetrahydro-1H-pyrido[3,4-b]indole]	47.03 (±0.12) %	8.88 (±0.25) %	21.1	> 50	IC50 [5]: 82.9 µM; IC50 [1]: 106 µM
O=C(/C=C/c1ccc(O)c(O)c1)NCc1cn(C[C@@H]2Cc3c([nH]c4ccccc34)CN2)nn1 [Compound 6h, (S)-3-((4-(N-(((E)-(3,4-Dihydroxyphenyl)propenoyl)azyl)methyl)-1H-1,2,3-triazol-1-yl)methyl)-2,3,4,9-tetrahydro-1H-pyrido[3,4-b]indole]	92.29 (±0.02) %	42.74 (±0.30) %	21.7		Protective effect against Aβ1-42 induced neuronal cell death (MTT viability) [6]: significantly greater than those of the potent single target compound, BACE1 inhibitor IV; also recorded: decrease cell death to a greater extent than BACE1 inhibitor IV; also recorded: better than that of single targeted ligands; IC50 [5]: 29.9 µM; IC50 [1]: 42.9 µM
CC(C)(C)c1ccc(-c2cn(C[C@@H](N)Cc3c[nH]c4ccccc34)nn2)cc1 [Compound 12a, (S)-1-(4-(4-tert-Butylphenyl)-1H-1,2,3-triazol-1-yl)-3-(1H-indol-3-yl)propan-2-amine]		42.65 (±1.07) %	18.9	17.8	
N[C@@H](Cc1c[nH]c2ccccc12)Cn1cc(-c2ccc(Cl)c(Cl)c2)nn1 [Compound 12c, (S)-1-(4-(3,4-Dichlorophenyl)-1H-1,2,3-triazol-1-yl)-3-(1H-indol-3-yl)propan-2-amine]			61.5	> 50	Protective effect against Aβ1-42 induced neuronal cell death (MTT viability) [6]: significantly greater than those of the potent single target compound, BACE1 inhibitor IV; also recorded: decrease cell death to a greater extent than BACE1 inhibitor IV; also recorded: better than that of single targeted ligands; IC50 [5]: 83.2 µM; IC50 [3]: 20.7 µM
N[C@@H](Cc1c[nH]c2ccccc12)Cn1cc(CNC(=O)c2ccccc2C(=O)c2ccc(O)cc2)nn1 [Compound 12d, (S)-N-((1-(2-Amino-3-(1H-indol-3-yl)propyl)-1H-1,2,3-triazol-4-yl)methyl)-2-(4-hydroxybenzoyl)-benzamide]	1.56 (±0.51) %	13.87 (±0.59) %	33		IC50 [5]: 47.5 µM
N[C@@H](Cc1c[nH]c2ccccc12)Cn1cc(CNC(=O)CCc2ccc(O)cc2)nn1 [Compound 12e, (S)-N-((1-(2-Amino-3-(1H-indol-3-yl)propyl)-1H-1,2,3-triazol-4-yl)methyl)-3-(4-hydroxyphenyl)propanamide]		41.42 (±1.13) %	7.53	36	
N[C@@H](Cc1c[nH]c2ccccc12)Cn1cc(CNC(=O)/C=C/c2ccc(O)c(O)c2)nn1 [Compound 12h, (S,E)-N-((1-(2-Amino-3-(1H-indol-3-yl)propyl)-1H-1,2,3-triazol-4-yl)methyl)-3-(3,4-dihydroxy-phenyl)acrylamide]	50.58 (±0.17) %		40		Protective effect against Aβ1-42 induced neuronal cell death (MTT viability) [6]: significantly greater than those of the potent single target compound, BACE1 inhibitor IV; also recorded: decrease cell death to a greater extent than BACE1 inhibitor IV; also recorded: better than that of single targeted ligands; IC50 [5]: 56.4 µM; IC50 [1]: 92.7 µM
COc1cc(/C=C/C(=O)CC(=O)/C=C/c2ccc(O)c(OC)c2)ccc1O [Curcumin, reference compound]				82.9	
O=C(O)CN(CCN(CC(=O)O)CC(=O)O)CC(=O)O [EDTA, reference compound]		98.00 (±0.34) %			
C[C@@H](NC(=O)c1cc(C(=O)N[C@@H](Cc2ccccc2)[C@H](O)CNC2CC2)cc(N(C)S(C)(=O)=O)c1)c1ccccc1 [Inh IV, reference compound]					Protective effect against Aβ1-42 induced neuronal cell death (MTT viability) [6]: improved cell viability
(S)-1-(1H-Indol-3-yl)-3-(4-(6-methoxynaphthalen-2-yl)-1H-1,2,3-triazol-1-yl)propan-2-amine [Compound 12b]		10.54 (±0.22) %			Anti-Aβ aggregation % Inhibition (at 100 µM) (±SEM) [4]: 34.02 (±10.13) %; BACE1 % Inhibition (at 25 µM) (±SEM) ([3]; 25 µM): 30.42 (±3.54) %

Source: PMC3618987, “From BACE1 Inhibitor to Multifunctionality of Tryptoline and Tryptamine Triazole Derivatives for Alzheimer’s Disease” (Molecules, 2012)
